According to patent US9334498B2, “Methods and compositions for modulating MIR-204 activity” (UAB Research Foundation, priority 2012, dated 2016):
Oligonucleotides are written 5' to 3', each unit as a sugar letter and its base; * is a phosphorothioate linkage, no mark a phosphodiester; rarer units and linkages stand in square brackets, end groups in braces. Plain capitals give the bases only. {Chol} = cholesterol; m = 2'-O-methyl

Columns and labels:
miR-204 = assay: Antagomir pilot studies in vivo: islet miR-204 expression; parameters: species or system mouse; details: after just one injection
Procedure: miR-204 knock down (in vitro and in vivo). We will utilize the miR204 inhibitor oligo (IN-320505-05; meridian Hairpin Inhibitor rno-miR-204) or scrambled control (IN-001005-01-05) (Dharmacon) to perform transfection experiments in INS-1 cells and primary human islets as mentioned above and described herein. This microRNA inhibitor oligonucleotide specifically binds to miR-204 and targets it for degradation. In fact, 72 h after transfection we saw a significant ˜5-fold reduction in miR-204 expression, but no effect on other microRNAs (data not shown) confirming the effectiveness and specificity of this approach. […] Therefore, after diabetes has been confirmed by blood glucose readings over 250 mg/dL on two consecutive days, these obese and diabetic male mice and their lean, non-diabetic littermates will again be divided into three treatment groups and will receive antagomir, mutant antagomir or saline injections as described for the wild-type mice. In all mice, blood glucose levels will be assessed daily (by glucometer) and serum will be collected before injection and prior to sacrifice for measurement of insulin levels (by ELISA)(17). […]

STAT3 = molecular target: T1, STAT3 (Rattus norvegicus, UniProt P52631); assay: STAT3 inhibition in INS-1 cells, expression by qRT-PCR; assay type: cell-based
T1 construct: endogenous in cells; host or cells: INS-1 rat beta cells
Procedure: FIG. 18. Effects of TXNIP and diabetes on beta cell miR-204 expression. Expression of miR-204 was assessed by qRT-PCR in (A) INS-1 cells overexpressing TXNIP (INS-TXNIP) and control (INS-LacZ) cells, (B) primary islets of TXNIP-deficient HcB-19 and C3H control mice, and (C) primary islets of beta-cell-specific TXNIP knockout bTKO and lox/lox control mice. (D) TXNIP effects on STAT3 activation were determined by immunoblotting for phospho-STAT3 (p-STAT3) and total STAT3 in INS-TXNIP and control INS-LacZ cells. (E) To determine the role of STAT3 in miR-204 expression, INS-1 cells were incubated with the STAT3 inhibitor STATTIC (2 μM for 48 hr) or vehicle (DMSO) and the expression of miR-204 was detected by qRT-PCR. (F) To assess the effect of diabetes on miR-204 expression, primary islets of 10-week old, male, diabetic ob/ob or lean control mice were analyzed by qRT-PCR. Bars represent means±SEM; n=3-5 independent experiments.
miR-204 is encoded within intron 6 of the TRPM3 gene (transient receptor potential melastatin 3, a cation-selective channel) and is transcribed in the same direction as TRPM3^30. Since miR-204 and TRPM3 are therefore sharing the same promoter, we deduced that, if TXNIP were to regulate miR-204 expression at the transcriptional level, TRPM3 would be co-regulated in parallel. […]

T1 sequence (P52631 whole entry): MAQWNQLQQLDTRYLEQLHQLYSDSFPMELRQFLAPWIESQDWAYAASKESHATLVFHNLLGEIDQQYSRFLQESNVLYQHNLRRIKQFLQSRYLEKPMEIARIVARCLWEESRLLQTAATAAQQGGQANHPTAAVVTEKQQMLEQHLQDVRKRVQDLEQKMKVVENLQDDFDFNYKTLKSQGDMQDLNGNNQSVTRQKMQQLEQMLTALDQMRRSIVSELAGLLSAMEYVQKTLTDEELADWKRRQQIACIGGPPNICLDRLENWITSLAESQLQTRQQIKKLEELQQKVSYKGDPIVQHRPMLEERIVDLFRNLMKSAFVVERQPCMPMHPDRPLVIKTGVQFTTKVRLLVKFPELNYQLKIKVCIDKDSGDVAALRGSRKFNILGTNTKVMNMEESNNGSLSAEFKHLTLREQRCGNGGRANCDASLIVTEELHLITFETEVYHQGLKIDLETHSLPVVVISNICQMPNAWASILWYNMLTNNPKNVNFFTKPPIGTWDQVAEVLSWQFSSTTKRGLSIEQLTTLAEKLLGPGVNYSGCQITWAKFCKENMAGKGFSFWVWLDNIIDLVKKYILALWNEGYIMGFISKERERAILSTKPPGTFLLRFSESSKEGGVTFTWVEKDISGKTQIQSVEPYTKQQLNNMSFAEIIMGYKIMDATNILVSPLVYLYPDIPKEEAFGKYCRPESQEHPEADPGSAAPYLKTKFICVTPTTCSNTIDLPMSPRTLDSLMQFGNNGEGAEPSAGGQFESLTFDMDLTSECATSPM

Compound	reduction in islet miR-204 expression (miR-204)	TRPM3 (host gene) expression (STAT3)	miR-204 expression (STAT3; 2 μM for 48 hr vs DMSO)
5′-mA(*)mG(*)mGmCmAmUmAmGmGmAmUmGmAmCmAmAmAmG mG(*)mG(*)mA(*) mA(*)-3Chl (antisense mA*mG*mGmCmAmUmAmGmGmAmUmGmAmCmAmAmAmGmG*mG*mA*mA*{Chol}) [miR-204 antagomir]	~2 fold	–	–
O=[N+]([O-])c1ccc2c(c1)S(=O)(=O)C=C2 [STATTIC]	–	significantly induced	significantly induced
